Measurements from PubChem BioAssay (NCI).
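96-well plates; 48 h exposure; 5 concentrations. Endpoints by linear interpolation between flanking doses. Not reached: highest tested concentration assigned. TGI denotes the concentration required for complete inhibition of growth.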

Experiments:
Experiment in all cases: DTP human tumour cell line panel, 48 h
[1] = test system: 786-0 renal
[2] = test system: A498 renal
[3] = test system: A549 NSCLC
[4] = test system: ACHN renal
[5] = test system: CCRF-CEM leukemia
[6] = test system: COLO 205 colon
[7] = test system: DLD-1 colon
[8] = test system: DMS 114 small cell lung
[9] = test system: DMS 273 small cell lung
[10] = test system: EKVX NSCLC
[11] = test system: HCC-2998 colon
[12] = test system: HCT-116 colon
[13] = test system: HCT-15 colon
[14] = test system: HL-60(TB) leukemia
[15] = test system: HOP-18 NSCLC
[16] = test system: HOP-62 NSCLC
[17] = test system: HOP-92 NSCLC
[18] = test system: HT29 colon
[19] = test system: IGROV1 ovarian
[20] = test system: K-562 leukemia
[21] = test system: KM12 colon
[22] = test system: KM20L2 colon
[23] = test system: LOX IMVI melanoma
[24] = test system: LXFL 529 NSCLC
[25] = test system: M14 melanoma
[26] = test system: M19-MEL melanoma
[27] = test system: MALME-3M melanoma
[28] = test system: MOLT-4 leukemia
[29] = test system: NCI-H226 lung
[30] = test system: NCI-H23 lung
[31] = test system: NCI-H460 lung
[32] = test system: NCI-H522 lung
[33] = test system: OVCAR-3 ovarian
[34] = test system: OVCAR-4 ovarian
[35] = test system: OVCAR-8 ovarian
[36] = test system: RPMI-8226 leukemia
[37] = test system: RXF 393 renal
[38] = test system: SF-268 CNS
[39] = test system: SF-295 CNS
[40] = test system: SF-539 CNS
[41] = test system: SK-MEL-2 melanoma
[42] = test system: SK-MEL-28 melanoma
[43] = test system: SK-OV-3 ovarian
[44] = test system: SN12C renal
[45] = test system: SNB-19 CNS
[46] = test system: SNB-75 CNS
[47] = test system: SNB-78 CNS
[48] = test system: SR leukemia
[49] = test system: SW-620 colon
[50] = test system: TK-10 renal
[51] = test system: U251 CNS
[52] = test system: UACC-257 melanoma
[53] = test system: UACC-62 melanoma
[54] = test system: UO-31 renal
[55] = test system: XF 498 CNS
[56] = test system: CAKI-1 renal
[57] = test system: SK-MEL-5 melanoma
[58] = test system: OVCAR-5 ovarian

Work on `Cc1c(/C=N/NC(=O)c2ccccc2)c(=O)n(-c2ccccc2)n1C` yielded a TGI [1] greater than 100 µM, a TGI [2] greater than 100 µM and a TGI [3] greater than 100 µM. The TGI [4] was greater than 100 µM, the TGI [5] was greater than 100 µM and the TGI [6] was greater than 100 µM. For the same compound, the TGI [7] was greater than 100 µM, the TGI [8] was greater than 100 µM and the TGI [9] was greater than 100 µM. It also gave a TGI [10] greater than 100 µM, a TGI [11] greater than 100 µM and a TGI [12] greater than 100 µM. For the same compound, the TGI [13] was greater than 100 µM, the TGI [14] was greater than 100 µM and the TGI [15] was greater than 100 µM. It also gave a TGI [16] greater than 100 µM, a TGI [17] greater than 100 µM and a TGI [18] greater than 100 µM. It also gave a TGI [19] greater than 100 µM, a TGI [20] greater than 100 µM and a TGI [21] greater than 100 µM. For the same compound, the TGI [22] was greater than 100 µM, the TGI [23] was greater than 100 µM and the TGI [24] was greater than 100 µM. It also gave a TGI [25] greater than 100 µM, a TGI [26] greater than 100 µM and a TGI [27] greater than 100 µM. It also gave a TGI [28] greater than 100 µM, a TGI [29] greater than 100 µM and a TGI [30] greater than 100 µM. For the same compound, the TGI [31] was greater than 100 µM, the TGI [32] was greater than 100 µM and the TGI [33] was greater than 100 µM. The TGI [34] was greater than 100 µM, the TGI [35] was greater than 100 µM and the TGI [36] was greater than 100 µM. The TGI [37] was greater than 100 µM, the TGI [38] was greater than 100 µM and the TGI [39] was greater than 100 µM. It also gave a TGI [40] greater than 100 µM, a TGI [41] greater than 100 µM and a TGI [42] greater than 100 µM. For the same compound, the TGI [43] was greater than 100 µM, the TGI [44] was greater than 100 µM and the TGI [45] was greater than 100 µM. It also gave a TGI [46] greater than 100 µM, a TGI [47] greater than 100 µM and a TGI [48] greater than 100 µM. It also gave a TGI [49] greater than 100 µM, a TGI [50] greater than 100 µM and a TGI [51] greater than 100 µM. For the same compound, the TGI [52] was greater than 100 µM, the TGI [53] was greater than 100 µM and the TGI [54] was greater than 100 µM. The TGI [55] was greater than 100 µM.
In the case of `CCOC(=O)NC(=O)c1cn(CCCCCOC(=O)NCCCCCCNC(=O)OCCCCCn2cc(C(=O)NC(=O)OCC)c(=O)[nH]c2=O)c(=O)[nH]c1=O`, the TGI [1] is reported as greater than 100 µM, the TGI [2] is reported as greater than 100 µM and the TGI [3] is reported as greater than 100 µM. It also gave a TGI [4] greater than 100 µM, a TGI [56] greater than 100 µM and a TGI [5] greater than 100 µM. For the same compound, the TGI [6] was greater than 100 µM, the TGI [7] was greater than 100 µM and the TGI [8] was greater than 100 µM. For the same compound, the TGI [9] was greater than 100 µM, the TGI [10] was greater than 100 µM and the TGI [11] was greater than 100 µM. For the same compound, the TGI [12] was greater than 100 µM, the TGI [13] was greater than 100 µM and the TGI [14] was greater than 100 µM. The TGI [15] was greater than 100 µM, the TGI [16] was greater than 100 µM and the TGI [18] was greater than 100 µM. For the same compound, the TGI [19] was greater than 100 µM, the TGI [20] was greater than 100 µM and the TGI [21] was greater than 100 µM. For the same compound, the TGI [22] was greater than 100 µM, the TGI [23] was greater than 100 µM and the TGI [24] was greater than 100 µM. It also gave a TGI [25] greater than 100 µM, a TGI [26] greater than 100 µM and a TGI [27] greater than 100 µM. For the same compound, the TGI [28] was greater than 100 µM, the TGI [29] was greater than 100 µM and the TGI [31] was greater than 100 µM. It also gave a TGI [32] greater than 100 µM, a TGI [33] greater than 100 µM and a TGI [34] greater than 100 µM. The TGI [35] was greater than 100 µM, the TGI [36] was greater than 100 µM and the TGI [37] was greater than 100 µM. For the same compound, the TGI [38] was greater than 100 µM, the TGI [39] was greater than 100 µM and the TGI [40] was greater than 100 µM. The TGI [41] was greater than 100 µM, the TGI [42] was greater than 100 µM and the TGI [57] was greater than 100 µM. For the same compound, the TGI [43] was greater than 100 µM, the TGI [44] was greater than 100 µM and the TGI [45] was greater than 100 µM. For the same compound, the TGI [46] was greater than 100 µM, the TGI [47] was greater than 100 µM and the TGI [49] was greater than 100 µM. It also gave a TGI [51] greater than 100 µM, a TGI [52] greater than 100 µM and a TGI [53] greater than 100 µM. The TGI [54] was greater than 100 µM.
Work on `C=C1C(=O)OC2C[C@H](C)C3CC(=O)C(C)=C3CC12` (some centres undefined) yielded a TGI [1] of 26.1 µM, a TGI [2] of 43.7 µM and a TGI [3] of 69.1 µM. For the same compound, the TGI [4] was 25.5 µM, the TGI [56] was 18.2 µM and the TGI [5] was 15.7 µM. For the same compound, the TGI [6] was 26.5 µM, the TGI [7] was 21.5 µM and the TGI [8] was 32.2 µM. It also gave a TGI [9] of 32.5 µM, a TGI [10] of 32.8 µM and a TGI [11] of 29.2 µM. The TGI [12] was 20.4 µM, the TGI [13] was 25.9 µM and the TGI [14] was 8.42 µM. The TGI [16] was greater than 54.4 µM, the TGI [17] was 24.1 µM and the TGI [18] was 31 µM. The TGI [19] was 31.4 µM, the TGI [20] was 23.1 µM and the TGI [21] was 33.3 µM. For the same compound, the TGI [22] was 33.5 µM, the TGI [23] was 30.4 µM and the TGI [24] was 24.7 µM. It also gave a TGI [25] of 27.4 µM, a TGI [26] of 27.8 µM and a TGI [27] of 25.3 µM. The TGI [28] was 23.3 µM, the TGI [29] was 30.6 µM and the TGI [30] was 28.7 µM. The TGI [31] was 51.6 µM, the TGI [32] was 3.66 µM and the TGI [33] was 26.2 µM. For the same compound, the TGI [34] was 30.3 µM, the TGI [58] was 28.9 µM and the TGI [35] was 39.3 µM. It also gave a TGI [36] of 21.9 µM, a TGI [37] of 31.6 µM and a TGI [38] of 38.7 µM. It also gave a TGI [39] greater than 62.3 µM, a TGI [40] of 35 µM and a TGI [41] of 29 µM. It also gave a TGI [42] of 18.7 µM, a TGI [57] of 33.3 µM and a TGI [43] greater than 100 µM. It also gave a TGI [44] of 26.1 µM, a TGI [45] greater than 100 µM and a TGI [46] of 32.6 µM. The TGI [47] was 44.1 µM, the TGI [48] was 22.3 µM and the TGI [49] was 18.7 µM. It also gave a TGI [50] of 30.5 µM, a TGI [51] of 18.1 µM and a TGI [52] of 28.6 µM. The TGI [53] was 25.9 µM, the TGI [54] was 26 µM and the TGI [55] was 30.1 µM.
